Experiments:
Kv3.3 mRNA = test: Experiment 2: in situ hybridisation of Kv3.3 mRNA in rat brain after chronic intermittent PCP (YRING model); type: in vivo
Protocol: (§1) In a second experiment using different method for in situ hybridisation, the effect of chronic PCP treatment on Kv3.1, Kv3.2 and Kv3.3 mRNA were examined. […] Animals were treated according to the YRING model (FIG. 1) and killed by cervical dislocation 72 hours after the last exposure to PCP. The brains were stored at −70° C. until required.
(§2) 20 μm coronal sections were cut on a cryostat at −20° C. and collected onto poly-L-lysine coated slides. The sections were fixed, dehydrated and stored under ethanol at 4° C. until required. […] On the day of in situ hybridization, the sections from the chronic study were allowed to dry at room temperature then hybridized with the appropriate probe overnight at 42° C. The sections were then washed, dehydrated and air-dried before being exposed to x-ray film for 7-10 days.
(§3) The quantification of mRNA expression was carried out using computer-based densitometry (MCID 5). Bilateral relative optical density measurements were taken from duplicate sections from each animal (n=8-10 per treatment group for the chronic study). The results were analyzed using individual t-tests for each brain region. Statistical significance was defined as p<0.05, again after correction for multiple comparisons using the sequential Bonferroni correction factor.

Kv3.1 mRNA = test: Experiment 2: in situ hybridisation of Kv3.1 mRNA in rat brain after chronic intermittent PCP (YRING model); type: in vivo
Protocol: as §1, §2, §3

Kv3.2 mRNA = test: Experiment 2: in situ hybridisation of Kv3.2 mRNA in rat brain after chronic intermittent PCP (YRING model); type: in vivo
Protocol: as §1, §2, §3

Kv3.1 α-subunit mRNA = test: Experiment 1: in situ hybridization of Kv3.1 α-subunit mRNA in brain, chronic PCP rat model of schizophrenia with antipsychotic co-treatment; type: in vivo; settings: for Kv3.1 α-subunit mRNA expression: PCP-Veh (PCP 2.24 mg/kg i.p.)
schizophrenia = settings: patients; cited from earlier work
[1] = ventral part of the reticular thalamic nucleus

## c1ccc(C2(N3CCCCC3)CCCCC2)cc1 [PCP, phencyclidine]
Kv3.3 mRNA; anterodorsal thalamic nucleus
  change in Kv3.3 mRNA expression after chronic intermittent PCP: +21%
Kv3.3 mRNA; prelimbic cortex
  change in Kv3.3 mRNA expression after chronic intermittent PCP: +18%
Kv3.3 mRNA; regions other than prelimbic, ventral orbital cortex, AD, vRt
  Kv3.3 mRNA expression change after chronic intermittent PCP: No other changes were observed in any other regions
Kv3.3 mRNA; ventral orbital cortex
  change in Kv3.3 mRNA expression after chronic intermittent PCP: +14%
Kv3.3 mRNA; [1]
  change in Kv3.3 mRNA expression after chronic intermittent PCP: +33%
Kv3.1 mRNA; prelimbic cortex
  change in Kv3.1 mRNA expression after chronic intermittent PCP: −23%
Kv3.1 mRNA; regions other than prelimbic cortex and vRt
  Kv3.1 mRNA expression change after chronic intermittent PCP: No other changes were observed in any other regions
Kv3.1 mRNA; [1]
  change in Kv3.1 mRNA expression after chronic intermittent PCP: −19%
Kv3.2 mRNA; anteromedial thalamic nucleus
  change in Kv3.2 mRNA expression after chronic intermittent PCP: −9%
Kv3.2 mRNA; prelimbic cortex
  change in Kv3.2 mRNA expression after chronic intermittent PCP: +16%
Kv3.2 mRNA; primary motor cortex
  change in Kv3.2 mRNA expression after chronic intermittent PCP: +13%
Kv3.2 mRNA; regions other than prelimbic cortex, primary motor cortex, anteromedial thalamic nucleus
  Kv3.2 mRNA expression change after chronic intermittent PCP: No significant changes were observed
Kv3.1 α-subunit mRNA; ACg
  Kv3.1 α-subunit mRNA expression: 15.01 PSL/mm^2
Kv3.1 α-subunit mRNA; AcbC
  Kv3.1 α-subunit mRNA expression: 8.48 PSL/mm^2
Kv3.1 α-subunit mRNA; AcbS
  Kv3.1 α-subunit mRNA expression: 10.62 PSL/mm^2
Kv3.1 α-subunit mRNA; Au1
  Kv3.1 α-subunit mRNA expression: 18.08 PSL/mm^2
Kv3.1 α-subunit mRNA; CA1pd
  Kv3.1 α-subunit mRNA expression: 15.90 PSL/mm^2
Kv3.1 α-subunit mRNA; CA2pd
  Kv3.1 α-subunit mRNA expression: 18.61 PSL/mm^2
Kv3.1 α-subunit mRNA; CA3pd
  Kv3.1 α-subunit mRNA expression: 32.94 PSL/mm^2
Kv3.1 α-subunit mRNA; DGgd
  Kv3.1 α-subunit mRNA expression: 38.63 PSL/mm^2
Kv3.1 α-subunit mRNA; DLStr
  Kv3.1 α-subunit mRNA expression: 5.87 PSL/mm^2
Kv3.1 α-subunit mRNA; IL
  Kv3.1 α-subunit mRNA expression: 12.28 PSL/mm^2
Kv3.1 α-subunit mRNA; IO
  Kv3.1 α-subunit mRNA expression: 16.48 PSL/mm^2
Kv3.1 α-subunit mRNA; M1
  Kv3.1 α-subunit mRNA expression: 15.88 PSL/mm^2
Kv3.1 α-subunit mRNA; M2
  Kv3.1 α-subunit mRNA expression: 14.38 PSL/mm^2
Kv3.1 α-subunit mRNA; MG
  Kv3.1 α-subunit mRNA expression: 26.93 PSL/mm^2
Kv3.1 α-subunit mRNA; MM
  Kv3.1 α-subunit mRNA expression: 24.34 PSL/mm^2
Kv3.1 α-subunit mRNA; Pir
  Kv3.1 α-subunit mRNA expression: 40.65 PSL/mm^2
Kv3.1 α-subunit mRNA; PrL
  Kv3.1 α-subunit mRNA expression: 9.83 PSL/mm^2
Kv3.1 α-subunit mRNA; RSa
  Kv3.1 α-subunit mRNA expression: 17.96 PSL/mm^2
Kv3.1 α-subunit mRNA; RSg
  Kv3.1 α-subunit mRNA expression: 20.38 PSL/mm^2
Kv3.1 α-subunit mRNA; SN
  Kv3.1 α-subunit mRNA expression: 12.82 PSL/mm^2
Kv3.1 α-subunit mRNA; VMStr
  Kv3.1 α-subunit mRNA expression: 6.15 PSL/mm^2
Kv3.1 α-subunit mRNA; VO
  Kv3.1 α-subunit mRNA expression: 19.85 PSL/mm^2
Kv3.1 α-subunit mRNA; dRt
  Kv3.1 α-subunit mRNA expression: 48.80 PSL/mm^2
Kv3.1 α-subunit mRNA; dorsal part of the reticular nucleus of the thalamus (dRt)
  change in Kv3.1 α-subunit mRNA expression after chronic PCP treatment: −15%
Kv3.1 α-subunit mRNA; dorsolateral striatum (DLStr)
  change in Kv3.1 α-subunit mRNA expression after chronic PCP treatment: −16%
Kv3.1 α-subunit mRNA; prelimbic region of the prefrontal cortex (PrL)
  change in Kv3.1 α-subunit mRNA expression after chronic PCP treatment: −31%
Kv3.1 α-subunit mRNA; vRt
  Kv3.1 α-subunit mRNA expression: 45.07 PSL/mm^2

## O=C(CCCN1CCC(O)(c2ccc(Cl)cc2)CC1)c1ccc(F)cc1 [haloperidol]
schizophrenia
  action against the negative symptoms and cognitive dysfunction of schizophrenia: ineffective
  attenuating the positive symptoms of schizophrenia: effective
